# Source: ChEMBL document CHEMBL5390238, “The mechanisms of multidrug resistance of breast cancer and research progress on related reversal agents” (Bioorg Med Chem, 2023)
# Assays:
# [1] = tested on: HaCaT; assay: Cytotoxicity against human HaCaT cells incubated for 72 hrs by MTT assay; assay type: functional, cell-based
# [2] = tested on: HepG2; assay: Antiproliferative activity against human HepG2 cells assessed as inhibition of cell growth incubated for 48 hrs by MTT assay; assay type: functional, cell-based; conditions: HepG2, 48 h
# [3] = tested on: HeLa; assay: Antiproliferative activity against human HeLa cells assessed as inhibition of cell growth incubated for 72 hrs by MTT assay; assay type: functional, cell-based
# [4] = tested on: HCT-116; assay: Cytotoxicity against human HCT-116 cells assessed as cell viability measured as mitochondrial NADH-dependent dehydrogenase activity incubated for 72 to 120 hrs; assay type: functional, cell-based
# [5] = tested on: MCF7; assay: Antiproliferative activity against human MCF-7 cells assessed as inhibition of cell growth incubated for 48 hrs by MTT assay; assay type: functional, cell-based; conditions: MCF7, 48 h
# [6] = tested on: MCF7; assay: Cytotoxicity against human MCF7 cells; assay type: functional, cell-based
# [7] = tested on: MCF7; assay: Antiproliferative activity against human MCF-7 cells assessed as cell growth inhibition; assay type: functional
# [8] = tested on: MDA-MB-231; assay: Antiproliferative activity against human MDA-MB-231 cells assessed as cell growth inhibition; assay type: functional
# [9] = target: T1, Estrogen receptor (Homo sapiens, UniProt P03372); assay: Inhibition of human ERalpha expressed in Saccharomyces cerevisiae co-expressing lacZ using CPRG as substrate incubated for 48 hrs by Colorimetric assay
# T1 sequence (P03372 whole entry): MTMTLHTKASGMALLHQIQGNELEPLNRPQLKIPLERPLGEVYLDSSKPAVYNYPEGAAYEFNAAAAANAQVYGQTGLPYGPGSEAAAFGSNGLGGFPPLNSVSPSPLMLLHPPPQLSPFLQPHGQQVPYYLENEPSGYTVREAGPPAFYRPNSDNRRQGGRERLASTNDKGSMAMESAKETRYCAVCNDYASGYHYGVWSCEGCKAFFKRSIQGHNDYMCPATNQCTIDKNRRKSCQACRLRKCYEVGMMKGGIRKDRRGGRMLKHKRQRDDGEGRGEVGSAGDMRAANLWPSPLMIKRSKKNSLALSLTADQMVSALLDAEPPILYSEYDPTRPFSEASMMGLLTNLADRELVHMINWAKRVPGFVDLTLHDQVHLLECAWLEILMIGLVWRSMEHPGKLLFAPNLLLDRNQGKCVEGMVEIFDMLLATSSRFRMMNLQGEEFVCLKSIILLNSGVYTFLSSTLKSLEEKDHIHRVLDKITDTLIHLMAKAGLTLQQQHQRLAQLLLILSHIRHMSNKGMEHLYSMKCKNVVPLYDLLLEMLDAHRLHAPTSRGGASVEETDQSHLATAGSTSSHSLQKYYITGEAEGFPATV
# [10] = Antiproliferative activity against human MCF7/BUS cells assessed as cell growth inhibition incubated for 6 days by MTT assay; assay type: functional, cell-based; conditions: 144 h
# [11] = Cytotoxicity against human RL14 cells incubated for 72 hrs by resazurin blue assay; assay type: toxicity, cell-based
# [12] = tested on: NCI/ADR-RES; assay: Cytotoxicity against human MCF7ADR cells; assay type: functional, cell-based
# [13] = tested on: MCF7; assay: Cytotoxicity against human MCF7 cells assessed as inhibition of cell growth in presence of paclitaxel by MTT assay; assay type: functional, cell-based
# [14] = Antiproliferative activity against multidrug resistant human MDA-MB-231/TxR cells assessed as inhibition of cell growth preincubated for 24 hrs followed by taxol treatment for 24 hrs by MTT assay; assay type: functional, cell-based
compound,measurement,setting,value
COc1cc(/C=C/c2ccc(SC)cc2)cc(OC)c1,IC50,[1],25300 nM
COc1cc([C@H]2OC[C@H]3[C@@H]2CO[C@@H]3c2ccc(O)c(OC)c2)ccc1O,IC50,[2],51 nM
Cc1nc(C)c(COC(=O)[C@]23CCC(C)(C)C[C@H]2C2=CC[C@@H]4[C@@]5(C)CC[C@H](OC(=O)CN)C(C)(C)[C@@H]5CC[C@@]4(C)[C@]2(C)CC3)nc1C,IC50,[3],3200 nM
COc1ccc(/C(C#N)=C/c2ccc(N3CCC(O)CC3)s2)cc1OC,IC50,[4],10 nM
CCNCc1ccccc1[Se][Se]c1ccccc1CNCC,IC50,[5],15 nM
CO[C@]1(CC[C@H](C)CO[C@@H]2O[C@H](CO)[C@@H](O)[C@H](O)[C@H]2O)O[C@H]2C[C@H]3[C@@H]4CC[C@@H]5C[C@@H](O[C@@H]6O[C@H](CO)[C@H](O[C@@H]7O[C@H](CO)[C@@H](O)[C@H](O[C@@H]8OC[C@@H](O)[C@H](O)[C@H]8O)[C@H]7O[C@@H]7O[C@H](CO)[C@H](O)[C@H](O)[C@H]7O)[C@H](O)[C@H]6O)CC[C@]5(C)[C@H]4CC[C@]3(C)[C@H]2[C@@H]1C,IC50,[6],5.2 nM
CCC(Cc1ccccc1)=C(c1ccc(OCCN2CCCC2)cc1)c1ccc(OC(=O)NCc2ccccc2)cc1,GI50,[7],90 nM
same,GI50,[8],1840 nM
CCC(Cc1ccc(OC)cc1)=C(c1ccc(O)cc1)c1ccc(OCCCN(C)C)cc1,IC50,[9],510 nM
same,IC50,[10],96 nM
COc1cccc2c1C(=O)c1c(O)c3c(c(O)c1C2=O)C[C@@](O)(C(=O)CO)C[C@@H]3O[C@H]1C[C@H](NC(=O)CNC(=O)Oc2ccc(C3=C(O)C(=O)C4C(O)=CC(O)=CC4O3)cc2O)[C@H](O)[C@H](C)O1 (stereo partly specified),IC50 at 72 h,[11],5 nM
O=c1cc(-c2ccc(O)cc2)oc2cc(O)cc(O)c12 [APIGENIN],IC50,[12],200 nM
COc1cc(/C=C/C(=O)CC(=O)/C=C/c2ccc(O)c(OC)c2)ccc1O [CURCUMIN],IC50,[13],88 nM
Oc1ccc(/C=C/c2cc(O)cc(O)c2)cc1 [RESVERATROL],IC50,[1],183000 nM
CC/C(=C(\c1ccccc1)c1ccc(OCCN(C)C)cc1)c1ccccc1 [TAMOXIFEN],IC50,[10],503 nM
CC(C)=CCC[C@@H](C(=O)O)[C@H]1CC[C@@]2(C)C3=C(CC[C@]12C)[C@@]1(C)CC[C@H](O)C(C)(C)[C@@H]1CC3 [TRAMETENOLIC ACID],IC50,[14],102 nM
